Patent EP0381913A1, “Benzohydroxamic-acid derivatives” (SANDOZ AG, priority 1988, dated 1990)

System: weeds
Experiment: greenhouse tests after either or both pre- and post-emergence application
Format: in vivo
Settings: application rate corresponding to 0.25 kg/ha
Protocol: In pre-emergence testing, small plastic greenhouse pots filled with dry soil are seeded with the various weed seeds. Twenty-four hours or less after the seeding, the pots are sprayed with water until the soil is wet and the test compounds formulated as aqueous emulsions of acetone solutions containing emulsifiers are sprayed at the indicated concentrations emulsifiers are sprayed on the surface of the soil. After spraying, the soil containers are placed in the greenhouse and provided with supplementary heat as required and daily or more frequent watering. The plants are maintained under these conditions for a period of from 14 to 21 days, at which time the conditions of the plants and the degree of injury to the plants is rated.
After spraying, the plants are placed in a greenhouse and watered daily or more frequently. Water is not applied to the foliage of the treated plants. The severity of the injury is determined 21 days after treatment and is rated.

Question: How did the control of weeds turn out when `COC(=O)CON(C(C)=O)C(=O)c1c(Cl)ccc(Cl)c1OC` [Compound 1.12, Methyl N-acetyl-N-(3,6-dichloro-2methoxy)benzoylaminooxyacetate] was run?
Answer: substantial control of weeds
